Where two headings read alike, the source gives them in different places.
Key:
Legionella [1] = tested on: Legionella
Legionella [2] = tested on: Legionella; remark: listed apart in the source

Substance	effect on Legionella at low concentration (Legionella [1])	growth of Legionella (Legionella [1])	decrease of the number of bacteria (Legionella [1])	effect on Legionella at low concentration (Legionella [2])	growth of Legionella (Legionella [2])
ammonium iron (II) sulfate hexahydrate	a sufficient effect was obtained	greatly suppressed	–	–	–
ammonium iron (III) sulfate dodecahydrate	a sufficient effect was obtained	greatly suppressed	–	–	–
iron (II) sulfate heptahydrate	the effect was observed	greatly suppressed	at least 3 orders of magnitude	an effect was obtained	greatly suppressed
iron (III) chloride hexahydrate	–	–	–	an effect was obtained	greatly suppressed
